Experimental data reported in publication PMC11156913, “New sulfonamide-based glycosides incorporated 1,2,3-triazole as cytotoxic agents through VEGFR-2 and carbonic anhydrase inhibitory activity” (Scientific Reports, 2024).
Where “and” joins values, the source holds several entries; their conditions need not be identical. Equal entries are not always repeated.

Key:
Bcl-2 = Bcl-2 level in MCF-7 cells; assay type: cell-based, human; settings: 24 h, 21.15 μM
Excerpt: (§1) Additionally, compound 9 boosted the p53 protein level by 7.4 times in MCF-7 treated cells compared to 125.40 Pg/mL in control cells (Table 3).
(§2) Bax, Bcl-2 and p53 levels in MCF-7 cells were clarified utilising the previously reported approach for the promising benzenesulfonamide-1,2,3-triazole-glycosides 9.
(§3) The levels of the apoptotic marker Bax and anti-apoptotic marker Bcl-2 were estimated using BIO RAD iScript TM One-Step RT-PCR kit with SYBR® Green. The procedure of the used kit was done according to the manufacturer’s instructions.

MCF-7 cells [1] = test: Apoptosis detection, Annexin V-FITC/PI flow cytometry; assay type: cell-based, human; settings: 21.15 μM, 24 h
Procedure: (§4) The cells were further examined through flow cytometry with annexin-V staining (Figs. 5–7).
(§5) The examination of cell cycle analysis and apoptosis was explained[66] with the use of flow cytometry. Benzenesulfonamide-1,2,3-triazole-glycosides 9 was applied to MCF-7 cells for a duration of 24 h, and the cells were then incubated at 37 °C. Further details were included in the supplemental file.
(§6) Cell cycle analysis and apoptosis study were carried out using flow cytometry. MCF-7 cells were seeded at 8×10^4 and incubated at 37°C in 5% CO2 overnight. After treatment with the tested compound 10 for 24 h, cell pellets were collected and centrifuged (300 g, 5 min). For cell cycle analysis cell pellets were fixed with 70% ethanol on ice for 15 min and collected again. The pellets were incubated with propidium iodide (PI) staining solution at room temperature for 1 h and analyzed by a Gallios flow cytometer (Beckman Coulter, Brea, CA, USA). Apoptosis detection was carried out by FITC AnnexinV/PI commercial kit (Becton Dickenson, Franklin Lakes, NJ, USA) following the manufacturer protocol. The samples were analyzed by fluorescence-activated cell sorting (FACS) with a Gallios flow cytometer (Beckman Coulter, Brea, CA, USA) within 1 h after staining. Data were analyzed using Kaluza v 1.2 (Beckman Coulter).

hCA IX = target: T1, hCA IX (Homo sapiens, UniProt Q16790); test: Carbonic anhydrase inhibition, stopped-flow CO2 hydration, hCA IX; assay type: biochemical; settings: read-out: IC50 (mean ± SD) Carbonic anhydrase isoforms hCA IX
T1 construct: made in house
Procedure: (§7) There was further information in the supplemental file.
(§8) An applied photophysics stopped-flow instrument was used for assaying the CA-catalyzed CO2 hydration activity. […] The CO2 concentrations ranged from 1.7 to 17 mM for the determination of the kinetic parameters and inhibition constants. For each inhibitor, at least six traces of the initial 5–10% of the reaction were used for determining the initial rate. The uncatalyzed rates were determined in the same manner and subtracted from the total observed rates. Stock solutions of inhibitor (0.1 mM) were prepared in distilled-deionized water, and dilutions up to 0.01 nM were done thereafter with distilled-deionized water. Inhibitor and enzyme solutions were preincubated together for 15 min at room temperature before assay in order to allow for the formation of the E-I complex. The inhibition constants were obtained by nonlinear least-squares methods using PRISM 3, and the Cheng –Prusoff equation, and represent the mean from at least three different determinations. All CA isoforms were recombinant ones obtained in-house.

[2] = test system: lung A-549 cancer cell line; test: In vitro cytotoxic activity (MTT assay), A-549
Procedure: Exponentially, cells were placed in 10^4 cells/ well for 24 h, and then add fresh medium which containing different concentration of the tested sample. Serial two-fold dilution of the tested sample were added using a multichannel pipette. […] Rinse the wells using water until no stain. After that, add 30% glacial acetic acid to all wells with shaking plates on Microplate reader (TECAN, Inc.) to measure the absorbance, using a test wavelength of 490 nm. Besides, compare the treated samples with the control cell.

[3] = test system: retinal pigment epithelial normal RPE-1 cell line; test: Cytotoxic activity (MTT assay) against normal cell line RPE-1; assay type: cell-based; settings: Homo sapiens, normal RPE-1 cells, read-out: IC50 (mean ± SD) RPE-1
Excerpt: Furthermore, the MTT assay was utilized to estimate the cytotoxic activity of the extremely potent derivatives 4, 7 and 9 against the normal cell line RPE-1, with the aim of examining their safety profiles (Table 1). […] They could therefore be thought of as safe cytotoxic agents.
(§9) The supplemental file contained extra details.

[4] = test system: breast MCF-7 cancer cell line; test: In vitro cytotoxic activity (MTT assay), MCF-7; assay type: cell-based, human
Excerpt: as §9

p53 = p53 level in MCF-7 cells (ELISA); assay type: cell-based, human; settings: 24 h, 21.15 μM
Procedure: as §1, §2
Human p53 present in MCF-7 cells was determined; using Human p53 ELISA-Kit (CS0070 Sigma) read using spectrophotometer at 450 nm against untreated control cells (negative control) applying the standard protocols of the manufacturers. The samples or standard having human p53 bind to antibodies adsorbed to the microwells. Addition of biotin-conjugated was followed by incubation and addition of dispense of unbound biotin-conjugated streptavidin HRP. Then, the reaction was terminated by adding acid, and the absorbance was measured at 450 nm.

VEGFR-2 = VEGFR-2 (Homo sapiens, UniProt P35968); test: In vitro inhibitory assessment against VEGFR-2 (ELISA, MCF-7 cell homogenates); assay type: cell-based; settings: read-out: IC50 (mean ± SD) VEGFR-2
VEGFR-2, sequence (P35968 20-1356): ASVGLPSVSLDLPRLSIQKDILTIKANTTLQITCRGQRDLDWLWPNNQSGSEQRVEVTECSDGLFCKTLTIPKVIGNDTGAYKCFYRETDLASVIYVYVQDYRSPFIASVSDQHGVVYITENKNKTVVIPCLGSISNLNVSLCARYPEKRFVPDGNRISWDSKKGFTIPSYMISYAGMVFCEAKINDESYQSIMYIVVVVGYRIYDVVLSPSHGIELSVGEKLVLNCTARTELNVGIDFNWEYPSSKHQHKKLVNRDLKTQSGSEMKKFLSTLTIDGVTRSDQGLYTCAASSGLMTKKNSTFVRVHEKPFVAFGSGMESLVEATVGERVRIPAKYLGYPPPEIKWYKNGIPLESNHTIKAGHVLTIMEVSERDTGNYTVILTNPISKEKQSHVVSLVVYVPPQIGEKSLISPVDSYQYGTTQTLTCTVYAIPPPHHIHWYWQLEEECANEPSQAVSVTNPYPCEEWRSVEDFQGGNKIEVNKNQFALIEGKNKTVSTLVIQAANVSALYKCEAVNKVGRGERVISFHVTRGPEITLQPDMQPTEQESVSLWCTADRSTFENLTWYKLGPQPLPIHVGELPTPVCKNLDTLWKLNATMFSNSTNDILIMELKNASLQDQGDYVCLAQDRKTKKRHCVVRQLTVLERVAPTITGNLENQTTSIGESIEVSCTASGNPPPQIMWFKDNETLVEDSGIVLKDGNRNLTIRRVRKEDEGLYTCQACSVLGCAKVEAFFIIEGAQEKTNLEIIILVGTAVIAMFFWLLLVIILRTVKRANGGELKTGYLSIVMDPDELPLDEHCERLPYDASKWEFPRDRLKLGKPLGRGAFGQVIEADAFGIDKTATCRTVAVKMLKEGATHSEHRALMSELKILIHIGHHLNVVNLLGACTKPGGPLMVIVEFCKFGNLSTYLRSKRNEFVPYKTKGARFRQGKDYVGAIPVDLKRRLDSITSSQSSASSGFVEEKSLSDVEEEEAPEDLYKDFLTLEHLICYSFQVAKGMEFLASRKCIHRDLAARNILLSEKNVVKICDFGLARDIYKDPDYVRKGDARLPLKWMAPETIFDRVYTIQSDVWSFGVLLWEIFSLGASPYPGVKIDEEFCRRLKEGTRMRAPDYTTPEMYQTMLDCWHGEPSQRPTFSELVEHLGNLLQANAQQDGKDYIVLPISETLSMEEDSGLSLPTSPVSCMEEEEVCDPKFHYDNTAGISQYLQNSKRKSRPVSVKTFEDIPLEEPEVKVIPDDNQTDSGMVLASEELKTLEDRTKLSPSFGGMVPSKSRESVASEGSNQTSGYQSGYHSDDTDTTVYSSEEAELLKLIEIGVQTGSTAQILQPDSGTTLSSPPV
Procedure: as §7
The cells were harvested and the homogenates were prepared in saline using a tight pestle homogenizer until complete cell disruption. The kit uses a double-antibody sandwich enzyme-linked immunosorbent assay (ELISA) to determine the level of human VEGFR-2 in samples. A monoclonal antibody for VEGFR-2 was pre-coated onto 96-well plates. The test samples are added to the wells and a biotinylated detection polyclonal antibody from goat specific for VEGFR-2 was added subsequently followed by washing with PBS buffer. Avidin-Biotin-Peroxidase complex was added and the unbound conjugates were washed away with PBS buffer. HRP substrate TMB was used to visualize HRP enzymatic reaction. TMB was catalyzed by HRP to produce a blue color product that changed into yellow after adding acidic stop solution. The density of yellow color is proportional to the human VEGFR-2 amount of the sample captured in the plate. The chroma of color and the concentration of the human VEGFR-2 of the samples were positively correlated and the optical density was determined at 450 nm. The level of human VEGFR-2 in samples was calculated (pg/ml) as duplicate determinations from the standard curve. Percent inhibition was calculated in comparison to control untreated cells.

MCF-7 cells [5] = test: Cell cycle analysis by flow cytometry (PI); assay type: cell-based, human; settings: 21.15 μM, 24 h, 48 h (Table S6 title)
Procedure: as §4, §5, §6

[6] = test system: liver HepG-2 cancer cell line; test: In vitro cytotoxic activity (MTT assay), HepG-2
Excerpt: as §9

hCA XII = target: T2, hCA XII (Homo sapiens, UniProt O43570); test: Carbonic anhydrase inhibition, stopped-flow CO2 hydration, hCA XII; assay type: biochemical; settings: read-out: IC50 (mean ± SD) Carbonic anhydrase isoforms hCA XII
T2 construct: made in house
T2 sequence (O43570 25-354): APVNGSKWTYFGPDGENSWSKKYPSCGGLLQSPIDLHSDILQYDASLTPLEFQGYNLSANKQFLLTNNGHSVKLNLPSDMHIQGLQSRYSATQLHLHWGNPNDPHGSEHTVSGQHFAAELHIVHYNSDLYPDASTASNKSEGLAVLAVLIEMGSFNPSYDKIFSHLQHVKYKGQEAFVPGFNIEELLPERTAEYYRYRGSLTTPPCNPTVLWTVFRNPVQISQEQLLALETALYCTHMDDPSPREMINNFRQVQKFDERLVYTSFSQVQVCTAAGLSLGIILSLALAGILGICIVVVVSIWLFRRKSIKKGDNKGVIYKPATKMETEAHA
Procedure: as §7, §8

Bax = Bax level in MCF-7 cells; assay type: cell-based, human; settings: 24 h, 21.15 μM
Excerpt: as §1, §2, §3

[7] = test system: colorectal HCT-116 cancer cell line; test: In vitro cytotoxic activity (MTT assay), HCT-116; assay type: cell-based, human
Excerpt: as §9

CC(=O)O[C@@H]1[C@@H](OC(C)=O)[C@H](OCc2cn(-c3ccc(S(=O)(=O)NC4CCCCC4)cc3)nn2)OC[C@H]1OC(C)=O [Compound 9, N-cyclohexyl-4-(4-([2,3,4-tri-O-acetyl-β-D-xylopyranosyl]oxymethyl)-1H-1,2,3-triazol-1-yl)benzenesulfonamide]
Bcl-2 (Bcl-2): 3.27 ng/mL and 3.27 ± 0.18 ng/mL | Bcl-2 protein downregulated versus control (Bcl-2): 2.6 times | Apoptosis Early (MCF-7 cells [1]): 15.77% | Apoptosis Late (MCF-7 cells [1]): 9.75% | Apoptosis Total (MCF-7 cells [1]): 29.51 | Necrosis (MCF-7 cells [1]): 3.99% | IC50 (hCA IX): 0.04 µM | percentage cytotoxicity on A-549 ([2]; 12.5 µM): 43.13±0.73% | percentage cytotoxicity on A-549 ([2]; 25 µM): 47.60±0.32% | percentage cytotoxicity on A-549 ([2]; 50 µM): 75.53±1.16% | percentage cytotoxicity on A-549 ([2]; 100 µM): 90.00±0.95% | inhibition at 100 µM ([2]; Homo sapiens, A549, 48 h, read-out: % inhibition ± SD A-549): 90 ± 0.95% | IC50 ([2]; Homo sapiens, A549, read-out: IC50 (mean ± SD) A-549): 19.8 ± 0.65 µM | IC50 [3]: 87.22 ± 0.73 µM | percentage cytotoxicity on MCF-7 ([4]; 12.5 µM): 32.60±6.13% | percentage cytotoxicity on MCF-7 ([4]; 25 µM): 52.27±0.43% | percentage cytotoxicity on MCF-7 ([4]; 50 µM): 83.30±1.87% | percentage cytotoxicity on MCF-7 ([4]; 100 µM): 92.73±1.04% | inhibition at 100 µM ([4]; Homo sapiens, MCF7, 100 µM, 48 h, read-out: % inhibition ± SD MCF-7): 92.7 ± 1.04% | IC50 ([4]; Homo sapiens, MCF7, MCF-7 cells, MTT, read-out: IC50 (mean ± SD) MCF-7): 21.2 ± 2.45 µM | P53 (p53): 930.69 ± 0.55 pg/mL | p53 protein level boosted versus control (p53): 7.4 times | IC50 (VEGFR-2): 0.38 ± 0.14 µM | %G0-G1 (MCF-7 cells [5]): 52.69% | %G2/M (MCF-7 cells [5]): 29.98% | %S (MCF-7 cells [5]): 17.33% | percentage cytotoxicity on HepG-2 ([6]; 12.5 µM): 58.20±1.50% | percentage cytotoxicity on HepG-2 ([6]; 25 µM): 63.70±2.29% | percentage cytotoxicity on HepG-2 ([6]; 50 µM): 82.59±0.87% | percentage cytotoxicity on HepG-2 ([6]; 100 µM): 82.60±1.73% | IC50 ([6]; Homo sapiens, HepG2, read-out: IC50 (mean ± SD) HepG-2): 8.39 ± 0.2 µM | IC50 (hCA XII): 0.0032 µM | Bax (Bax): 271.45 pg/mL and 271.45 ± 0.25 pg/mL | Bax/Bcl-2 (Bax): 83.01 | increase in Bax levels compared to untreated control cells (Bax): 6.2 fold | percentage cytotoxicity on HCT-116 ([7]; 12.5 µM): 34.51±0.44% | percentage cytotoxicity on HCT-116 ([7]; 25 µM): 53.50±0.93% | percentage cytotoxicity on HCT-116 ([7]; 50 µM): 67.00±0.12% | percentage cytotoxicity on HCT-116 ([7]; 100 µM): 75.70±0.48% | inhibition at 100 µM ([7]; Homo sapiens, HCT-116, 100 µM, 48 h, read-out: % inhibition ± SD HCT-116): 75.7 ± 0.48% | IC50 ([7]; Homo sapiens, HCT-116 cells, MTT, read-out: IC50 (mean ± SD) HCT-116): 23.6 ± 0.22 µM
